Data: US20230303540A1 (Merck Sharp & Dohme LLC, priority 2020, published 2023)

Target: GST-tagged truncated human mutant G2019S LRRK2 (Homo sapiens, UniProt Q5S007, G2019S)
Experiment: LRRK2 G2019S Km ATP LanthaScreen assay
Assay type: biochemical
Details: 134 μM ATP (Km ATP), LRRKtide substrate, mean IC50 values; read-out: LRRK2 pIC50 (converted)
Procedure, shortened: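 Compound preincubated 15 min at room temperature with enzyme in pH 8.5 Tris buffer (10 mM MgCl2). Then a 90 min reaction at ambient temperature with 134 μM (Km) ATP and fluorescein-LRRKtide. EDTA stop, Tb anti-phospho antibody TR-FRET; […]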

| SMILES | IC50 |
| --- | --- |
| Cc1c(Nc2cc3cc(N4CCN(C5(C)COCC5O)CC4)c(Cl)cc3cn2)cnn1C1CC1 (single isomer, unassigned) [Ex-6.51, (3S,4S) or (3R,4R) 4-(4-(7-chloro-3-((1-cyclopropyl-5-methyl-1H-pyrazol-4-yl)amino)isoquinolin-6-yl)piperazin-1-yl)-4-methyltetrahydrofuran-3-ol] | 1.35 nM |
| CC1(N2CCN(c3cc4nc(Nc5cnn(C(F)F)c5)ncc4cc3Cl)CC2)COC1 [Ex-4.57, 6-chloro-N-[1-(difluoromethyl)-1H-pyrazol-4-yl]-7-[4-(3-methyloxetan-3-yl)piperazin-1-yl]quinazolin-2-amine] | 4.13 nM |
| Cc1cc(Nc2ncc3ccc(N4C(=O)OC[C@@H]4C)cc3n2)n(C)n1 [Ex-8.1, (4S)-3-{2-[(1,3-dimethyl-1H-pyrazol-5-yl)amino]quinazolin-7-yl}-4-methyl-1,3-oxazolidin-2-one] | 4.41 nM |
| CC1(N2CCN(c3cc4nc(Nc5cnn(C6CC(F)C6)c5Cl)ncc4cc3Cl)CC2)COC1 (centres unmarked) [Ex-3.21, 6-chloro-N-[5-chloro-1-(3-fluorocyclobutyl)-1H-pyrazol-4-yl]-7-[4-(3-methyloxetan-3-yl)piperazin-1-yl]quinazolin-2-amine] | 4.01 nM |
| CC1(N2CCN(c3cc4nc(Nc5cnn(C67CC(F)(C6)C7)c5Cl)ncc4cc3Cl)CC2)COCC1O (single isomer, unassigned) [Ex-13.8, (3S,4S) or (3R,4R)4-(4-(6-chloro-2-((5-chloro-1-(3-fluorobicyclo[1.1.1]pentan-1-yl)-1H-pyrazol-4-yl)amino)quinazolin-7-yl)piperazin-1-yl)-4-methyltetrahydrofuran-3-ol] | 1.69 nM |
| OC1CN(c2cc3nc(Nc4cnn(CC(F)F)c4Cl)ncc3cc2Cl)C1 [Ex-1.18, 1-(6-chloro-2-{[5-chloro-1-(2,2-difluoroethyl)-1H-pyrazol-4-yl]amino}quinazolin-7-yl)azetidin-3-ol] | 18.9 nM |
| Cc1c(Nc2ncc3ccc(N4C(=O)OCC4C4CC4)cc3n2)cnn1C1CCOCC1 (single isomer, unassigned) [Ex-7.14, (R) or (S) 4-cyclopropyl-3-(2-{[5-methyl-1-(oxan-4-yl)-1H-pyrazol-4-yl]amino}quinazolin-7-yl)-1,3-oxazolidin-2-one] | 0.749 nM |
| CC1(O)CCN(c2cc3nc(Nc4cnn(C5CC5)c4Cl)ncc3cc2Cl)CC1 [Ex-1.34, 1-{6-chloro-2-[(5-chloro-1-cyclopropyl-1H-pyrazol-4-yl)amino]quinazolin-7-yl}-4-methylpiperidin-4-ol] | 1.39 nM |
| CC(C)Nc1ccc2cnc(Nc3cnn(C4CCN(C5(C)COC5)CC4)c3)nc2c1 [Ex-4.9, N~2~-{1-[1-(3-methyloxetan-3-yl)piperidin-4-yl]-1H-pyrazol-4-yl}-N~7~-(propan-2-yl)quinazoline-2,7-diamine] | 9.16 nM |
| OC1COCC1N1CCN(c2cc3nc(Nc4cnn(C5CC5(F)F)c4Cl)ncc3cc2Cl)CC1 (single isomer, unassigned) [Ex-6.31, (3S,4S) or (3R,4R) 4-[4-(6-chloro-2-{[5-chloro-1-(2,2-(R) or (S)difluorocyclopropyl)-1H-pyrazol-4-yl]amino}quinazolin-7-yl)piperazin-1-yl]oxolan-3-ol] | 17.9 nM |
| OC[C@@H]1[C@H]2CN(c3cc4nc(Nc5cnn(CC(F)F)c5Cl)ncc4cc3Cl)C[C@@H]12 [Ex-1.19, [(1R,5S,6R)-3-(6-chloro-2-{[5-chloro-1-(2,2-difluoroethyl)-1H-pyrazol-4-yl]amino}quinazolin-7-yl)-3-azabicyclo[3.1.0]hexan-6-yl]methanol] | 4.87 nM |
| CC1(N2CCN(c3cc4nc(Nc5cnn(CC6CCC6)c5Cl)ncc4cc3Cl)CC2)COC1 [Ex-4.54, 6-chloro-N-[5-chloro-1-(cyclobutylmethyl)-1H-pyrazol-4-yl]-7-[4-(3-methyloxetan-3-yl)piperazin-1-yl]quinazolin-2-amine] | 2.87 nM |
| Cc1c(Nc2ncc3cc(Cl)c(N4CCN(C5COCC5O)CC4)cc3n2)cnn1C1CC1(F)F (single isomer, unassigned) [Ex-6.45, (3S,4S) or (3R,4R) 4-[4-(6-chloro-2-{[1-(2,2-(R) or (S)difluorocyclopropyl)-5-methyl-1H-pyrazol-4-yl]amino}quinazolin-7-yl)piperazin-1-yl]oxolan-3-ol] | 0.843 nM |
| C[C@@]1(N2CCN(c3cc4nc(Nc5cnn(C6CC6)c5C(F)F)ncc4cc3Cl)CC2)COC[C@@H]1O [Ex-6.56, (3R,4R)-4-(4-(6-chloro-2-((1-cyclopropyl-5-(difluoromethyl)-1H-pyrazol-4-yl)amino)quinazolin-7-yl)piperazin-1-yl)-4-methyltetrahydrofuran-3-ol] | 0.08 nM |
| CC1(N2CCN(c3cc4nc(Nc5cnn(C6CC6)c5)ncc4cc3Cl)CC2)COC1 [Ex-4.18, 6-chloro-N-(1-cyclopropyl-1H-pyrazol-4-yl)-7-[4-(3-methyloxetan-3-yl)piperazin-1-yl]quinazolin-2-amine] | 2.39 nM |
| CC1(N2CCN(c3cc4nc(Nc5cnn(CC6C[C@@H](F)[C@H](F)C6)c5)ncc4cc3Cl)CC2)COC1 [Ex-4.65, 6-chloro-N-(1-{[(3R,4R)-3,4-difluorocyclopentyl]methyl}-1H-pyrazol-4-yl)-7-[4-(3-methyloxetan-3-yl)piperazin-1-yl]quinazolin-2-amine] | 23.9 nM |
| Clc1cc2cnc(Nc3cnn(C4CC4)c3Cl)nc2cc1N1CCn2cnnc2C1 [Ex-1.26, 6-chloro-N-(5-chloro-1-cyclopropyl-1H-pyrazol-4-yl)-7-(5,6-dihydro[1,2,4]triazolo[4,3-a]pyrazin-7(8H)-yl)quinazolin-2-amine] | 1.49 nM |
| CN(C)c1cc2nc(Nc3cnn(C4CC4(F)F)c3Cl)ncc2cc1Cl (single isomer, unassigned) [Ex-3.42, (R) or (S) 6-chloro-N~2~-[5-chloro-1-(2,2-difluorocyclopropyl)-1H-pyrazol-4-yl]-N~7~,N~7~-dimethylquinazoline-2,7-diamine] | 7.37 nM |
| OC1COCC1N1CCN(c2cc3nc(Nc4cnn(C(F)F)c4)ncc3cc2Cl)CC1 (single isomer, unassigned) [Ex-6.46, (3S,4S) or (3R,4R) 4-(4-(6-chloro-2-((1-(difluoromethyl)-1H-pyrazol-4-yl)amino)quinazolin-7-yl)piperazin-1-yl)tetrahydrofuran-3-ol] | 18.4 nM |
| CC1(O)CCN(c2cc3nc(Nc4cnn(C5CC5)c4Cl)ncc3cc2C#N)CC1 [Ex-3.54, 2-[(5-chloro-1-cyclopropyl-1H-pyrazol-4-yl)amino]-7-(4-hydroxy-4-methylpiperidin-1-yl)quinazoline-6-carbonitrile] | 8.43 nM |
| Cn1cc(Nc2ncc3ccc(N4C(=O)C5CCC4C5)cc3n2)c(C(F)(F)F)n1 (centres unmarked) [Ex-7.9, 2-(2-{[1-methyl-3-(trifluoromethyl)-1H-pyrazol-4-yl]amino}quinazolin-7-yl)-2-azabicyclo[2.2.1]heptan-3-one] | 34 nM |
| C[C@]1(O)[C@@H]2CC[C@H]1CN(c1cc3nc(Nc4cnn(C5CC5)c4Cl)ncc3cc1Cl)C2 [Ex-1.40, (8-syn)-3-{6-chloro-2-[(5-chloro-1-cyclopropyl-1H-pyrazol-4-yl)amino]quinazolin-7-yl}-8-methyl-3-azabicyclo[3.2.1]octan-8-ol] | 11.2 nM |
| CC(C)(O)Cn1ncc(Nc2ncc3cc(Cl)c(N4CCC(C)(O)CC4)cc3n2)c1Cl [Ex-3.13, 1-(6-chloro-2-{[5-chloro-1-(2-hydroxy-2-methylpropyl)-1H-pyrazol-4-yl]amino}quinazolin-7-yl)-4-methylpiperidin-4-ol] | 1.54 nM |
